Measured values as given in patent US20160074380A1, “Treatment Of Neurodegenerative Diseases With Combination Of Laquinimod And Fingolimod” (TEVA PHARMACEUTICAL INDUSTRIES LTD., priority 2014, published 2016).
Several values for one entry are separate records, joined by “and”; a condition that tells them apart may be missing. Identical values can stand only once. Like-named read-outs stand apart in the source and are kept apart here.

How the values were obtained:
reactive astrocytes [1] = assay: NO release in conditioned media from reactive astrocytes (ELISA); format: cell-based, mice; conditions: LPS+IFNγ
Description: (§1) Mice mixed glial cells were cultured as described by McCarthy et al., 1980. Primary mice glial cells were prepared from the cortical of newborn Swiss mice (1 day). Briefly, meninges and blood vessels of the mice cortex were removed and placed in ice-cold medium of L15 containing 2% of PS and 1% of BSA. Tissues were dissociated with 0.25% trypsin-EDTA at 37° C. for 10 min. Cells were then submitted to a supplementary incubation of 15 min at 37° C. in presence of deoxyribonuclease I (final concentration of 0.5 mg/mL). Cells were then pelleted (5 min at 1200 rpm) and trypsinization was stopped by adding DMEM supplemented with 10% FCS, 1 mM of Na/pyruvate (PanBiotech, ref: P04-43100, batch: 3470914) and 2% PS. Cells suspension was mechanically dissociated and filtered through 40 μm diameter nylon meshes (BD Falcon, Ref: 352340). The cells were collected by centrifugation at 1200 rpm/min for 10 min, re-suspended in culture medium and then plated in culture flasks (Dutscher, ref: 690175). Cells were seeded at a density of 1.25×10^5 cells/cm2 and cultured in 5% CO2 at 37° C. Medium was changed three times per week.
(§2) Purification of astrocytes cells was done as described by Kim et al., 2006. After 14 days, the flasks were shaken on a rotary shaker at 200 rpm for 3 h. The resulting cell suspension rich in microglia was removed. Cells remaining in the flasks from which microglia had been harvested correspond to astrocytes at a purity of about 90%. Astrocytes were cultured in DMEM supplemented with 10% FCS, 1 mM of Na/pyruvate and 2% at 5% CO2 and 37° C. in flasks of 25 cm2.
(§3) When reaching confluence, primary astroglial cells were first incubated for 2 hours with Fingolimod (1 nM, 10 nM) or Laquinimod (1 nM, 10 nM, 100 nM, 1 μM, 10 μM) alone or in co-incubation or control medium.
(§4) At the end of 2 hours treatment with test compounds, astrocyte culture was activated with serum-free DMEM containing LPS (100 ng/mL; Sigma, Serotype 026:B6, ref: L2654; batch: 123M4052V) and IFNγ (10 ng/mL; Peprotech; ref: 315-05; batch: 061398 L0513) for 6 hours (Kim and Lee, 2013; Shu et al., 2014; Gresa-Arribas et al., 2012) in absence or presence of test compounds.
(§5) To obtain LPS/INFγ free conditioned media (CM), after 6 hours, cells were washed twice with DMEM and medium was replaced with DMEM supplemented with B27 (2%), L-glutamine (2 mM), PS solution (2%). LCM was collected 24 hrs after. For control, cells were incubated with medium not containing LPS/INFγ. […]

reactive astrocytes [2] = assay: CCL7 release in conditioned media from reactive astrocytes (ELISA); format: cell-based, mice; conditions: LPS+IFNγ
Description: as §1, §2, §3, §4, §5

mouse primary microglia = assay: Pro-inflammatory cytokine production in mouse primary microglia; format: cell-based
[3] = tested on: peripheral lymphocyte counts; assay: Peripheral lymphocyte counts with fingolimod; format: in vivo; conditions: S1P receptor-mediated
cuprizone model = conditions: Slovic, 2012, Kim, 2011; cited from earlier work
lysolecithin model [4] = conditions: Hu, 2011; cited from earlier work
oligodendrocytes [5] = conditions: inflammatory insults; Rochelle, 2007; cited from earlier work
[6] = DA EAE rats, doses 0.03-0.3 mg/kg; Foster, 2007; cited from earlier work
lysolecithin model [7] = assay: Lysolecithin-induced demyelination model; format: in vivo
established EAE = assay: Established EAE; format: in vivo
oligodendrocytes [8] = assay: Oligodendrocyte survival under inflammatory insults; format: cell-based
[9] = tested on: H2TT (primary neuronal culture) cells; assay: Oxidative glutamate toxicity of H2TT cells; format: cell-based; conditions: prolonged incubation
NF-κB pathway = assay: p65 translocation into the astrocyte nucleus in vivo
human microglia = assay: Human microglia activation in culture (LPS); format: cell-based
Excerpt: (§6) In another study, laquinimod reduced microglial activation in culture. The size of CD14 stained human microglia was increased with LPS activation. Also, in FIG. 13, human (C) or mouse (D) microglia elevated TNF-α secretion upon LPS activation, which was attenuated by laquinimod.

mouse microglia = assay: Mouse microglia TNF-α secretion upon LPS activation; format: cell-based
Excerpt: as §6

microglia/macrophages = assay: Microglial activation in EAE-afflicted mice; format: in vivo; conditions: spinal cord of EAE-afflicted mice
Excerpt: Laquinimod inhibited microglial activation in EAE in mice. Transcripts encoding markers of activation of microglia/macrophages were increased in the spinal cord of EAE-afflicted mice and decreased in laquinimod-treated animals, as presented in FIG. 15.

lymphocyte counts = assay: Lymphocyte counts over time with laquinimod versus placebo; format: in vivo; conditions: laquinimod 0.6 mg group vs placebo or baseline, all visits
[10] = Penetration of intact and disrupted Blood Brain Barrier; format: in vivo, mice; conditions: for Kp: mouse, CNS tissue relative to blood, read-out: CNS tissue level, % of the blood concentration
Excerpt: In another study, laquinimod, as a small molecule, penetrated both intact and disrupted Blood Brain Barrier (BBB). In view of FIG. 17, CNS tissue level of laquinimod was 7-8% of the blood concentration in healthy mice and 13% in EAE mice when the BBB was disrupted. Further, 90% of the drug in cerebrospinal fluid (CSF) was active, or free, due to low protein binding and expected also in brain interstitial fluids. Thus, laquinimod targeted the entire brain and not only the lesions.

[11] = Mus musculus, Astrocyte, 100 nM

## CCCCCCCCc1ccc(CCC(N)(CO)CO)cc1 [Fingolimod]
Reactive astrocytes [1]; 1 nM
  NO content: 24.39 pg/mL and 24.396 pg/mL
Reactive astrocytes [1]; 10 nM
  NO content: 17.37 pg/mL and 17.371 pg/mL
Reactive astrocytes [1]; Mus musculus, Astrocyte, 1 nM
  inhibition at 0.001 µM: 43.7%
Reactive astrocytes [1]; Mus musculus, Astrocyte, 10 nM
  inhibition at 0.01 µM: 59.9%
Reactive astrocytes [2]; 1 nM
  CCL-7 content: 24.396 pg/mL
Reactive astrocytes [2]; Mus musculus, Astrocyte, 1 nM
  inhibition at 0.001 µM: 43.7%
Reactive astrocytes [2]; Mus musculus, Astrocyte, 10 nM
  inhibition at 0.01 µM: 59.9%
Mouse primary microglia
  microglial production of pro-inflammatory cytokine: inhibited
[3]
  lymphocyte count reduction: dose dependent
Cuprizone model
  re-myelination: not conclusive
Lysolecithin model [4]
  re-myelination: lack of any effect
Oligodendrocytes [5]
  oligodendrocyte survival: did protect oligodendrocytes
[6]
  brain/blood ratio: about 20

## CCN(C(=O)c1c(O)c2c(Cl)cccc2n(C)c1=O)c1ccccc1 [Laquinimod]
Reactive astrocytes [1]; 1 nM
  NO content: 26.44 pg/mL and 26.447 pg/mL
Reactive astrocytes [1]; 10 nM
  NO content: 21.1 pg/mL and 21.093 pg/mL
Reactive astrocytes [1]; 100 nM
  NO content: 17.98 pg/mL and 17.983 pg/mL
Reactive astrocytes [1]; 1 μM
  NO content: 16.11 pg/mL and 16.111 pg/mL
Reactive astrocytes [1]; Mus musculus, Astrocyte, 1 nM
  inhibition at 0.001 µM: 39%
Reactive astrocytes [1]; Mus musculus, Astrocyte, 10 nM
  inhibition at 0.01 µM: 51.3%
Reactive astrocytes [1]; [11]
  inhibition at 0.1 µM: 58.5%
Reactive astrocytes [1]; Mus musculus, Astrocyte, 1 μM
  inhibition at 1 µM: 62.8%
Reactive astrocytes [2]; 1 nM
  CCL-7 content: 26.447 pg/mL
Reactive astrocytes [2]; 10 nM
  CCL-7 content: 21.093 pg/mL
Reactive astrocytes [2]; Mus musculus, Astrocyte, 1 nM
  inhibition at 0.001 µM: 39%
Reactive astrocytes [2]; Mus musculus, Astrocyte, 10 nM
  inhibition at 0.01 µM: 51.3%
Reactive astrocytes [2]; [11]
  inhibition at 0.1 µM: 58.5%
Reactive astrocytes [2]; Mus musculus, Astrocyte, 1 μM
  inhibition at 1 µM: 62.8%
Lysolecithin model [7]
  lysolecithin-induced demyelination: no effect
Established EAE
  clinical disease: ameliorates clinical disease
  expansion of pre-existing lesions: inhibits further expansion of pre-existing lesions
Oligodendrocytes [8]
  oligodendrocyte survival: does not protect oligodendrocytes
[9]
  oxidative glutamate toxicity: protects against oxidative glutamate toxicity
NF-κB pathway
  astrocyte activation (p65 translocation into the astrocyte nucleus): significantly reduced astrocyte activation
Human microglia; LPS activation
  size of CD14 stained human microglia: reduced
Human microglia; human microglia
  microglial production of pro-inflammatory cytokine: inhibited
Human microglia; human microglia, LPS activation
  TNF-α secretion: attenuated
Mouse microglia
  TNF-α secretion: attenuated
microglia/macrophages
  transcripts encoding markers of activation of microglia/macrophages: decreased
Lymphocyte counts
  lymphocyte counts: remained stable
[10]; low protein binding
  active, or free, drug in cerebrospinal fluid (CSF): 90%
[10]; EAE mice, BBB disrupted
  Kp: 0.13
[10]; healthy mice
  Kp: 0.07 to 0.08
